Test results as given in patent publication US10968193B2, “Antidiabetic bicyclic compounds” (Merck Sharp & Dohme Corp., priority 2014, dated 2021).

The compounds below were run against T1, human GPR40 (Homo sapiens, UniProt O14842) (assay: Inositol Phosphate Turnover (IP1) Assay 2). Details: HEK cells stably expressing human GPR40; 15,000 cells per well; compound acoustically transferred; CisBio IP-One kit.
T1 construct: expressed in transfected cells; host or cells: HEK cells stably expressing the aequorin reporter
T1 sequence (O14842 whole entry): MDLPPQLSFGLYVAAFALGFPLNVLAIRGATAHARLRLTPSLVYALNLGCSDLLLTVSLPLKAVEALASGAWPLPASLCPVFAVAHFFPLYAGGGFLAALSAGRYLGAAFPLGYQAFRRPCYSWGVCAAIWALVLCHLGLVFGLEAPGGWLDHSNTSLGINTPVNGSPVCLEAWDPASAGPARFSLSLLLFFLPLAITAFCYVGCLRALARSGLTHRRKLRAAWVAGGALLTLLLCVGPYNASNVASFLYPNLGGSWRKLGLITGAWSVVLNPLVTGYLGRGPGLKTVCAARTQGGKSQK
Format: cell-based
Experimental: Human and mouse GPR40 stable cell-lines were generated in CHO cells stably expressing NFAT BLA (Beta-lactamase). A human GPR40 stable cell-line was generated in HEK cells stably expressing the aequorin expressing reporter. The expression plasmids were transfected using lipofectamine (Life Technologies) following manufacturer's instructions. Stable cell-lines were generated following drug selection.
Inositol Phosphate Turnover (IP1) Assay 2:
The assay was performed in 384-well format. HEK cells stably expressing human GPR40 were plated at 15,000 cells per well in growth medium (DMEM/10% fetal calf serum). Cell plates were then incubated 16 hours at 37 degrees in a 5% CO2 incubator.
Measurement of Inositol Phosphate Turnover (IP1) was performed using the CisBio IP-One kit (Part number 62IPAPEB). After the 16 hour incubation, the cells were washed with HEPES buffer and 10 ul of stimulation buffer (prepared as described in the kit) was added to each well. In a separate plate, compounds were diluted in DMSO (400-fold over the final concentration in the assay well) and 25 nl was acoustically transferred to the appropriate well in the assay cell plate. The plates were then incubated for 60 minutes at 37 degrees. 10 ul of detection buffer (also prepared as described in the IP-One kit) was added to each well and the plates were incubated for 60 minutes in the dark. The plates were then read in a Perkin Elmer EnVision or equivalent reader able to measure FRET. Fluorescent ratio of emission at 665 and 620 nm was then converted to IP1 concentration by back calculating from an IP1 standard curve prepared at the time of the assay.

Going from `COC[C@@H]1CCCN1Cc1cc(C2CCc3ccc([C@H](C4CC4)[C@H](C)C(=O)O)cc3O2)ccc1-c1cc(OC)ncc1F` (some centres unmarked) [Example 36] to `COc1cc(-c2ccc([C@H]3CCc4ccc([C@H](C5CC5)[C@H](C)C(=O)O)cc4O3)cc2CN2CCC[C@H]2C)c(F)cn1` [Example 137], the EC50 rises from 2.1 nM to 4.6 nM (2.2-fold).

`COc1cc(-c2ccc(C3CCc4ccc([C@H](C5CC5)[C@H](C)C(=O)O)cc4O3)cc2CN2CCC2(C)C)c(F)cn1` (mixture of isomers) [Example 49] and `COc1cc(-c2ccc([C@@H]3CCc4ccc([C@H](C5CC5)[C@H](C)C(=O)O)cc4O3)cc2CN2CCC2(C)C)c(F)cn1` [Example 157] are within 1.5-fold of each other in EC50: 4 nM for the first, 4.2 nM for the second.

`COc1cc(-c2ccc([C@H]3CCc4ccc([C@H](C5CC5)[C@H](C)C(=O)O)cc4O3)cc2CN2CCC(C)(C)CC2)c(F)cn1` [Example 169] and `COc1cc(-c2ccc([C@@H]3CCc4ccc([C@H](C5CC5)[C@H](C)C(=O)O)cc4O3)cc2CN2CCC(C)(C)CC2)c(F)cn1` [Example 155] are within 1.5-fold of each other in EC50: 1.7 nM for the first, 1.8 nM for the second.

`COc1cc(-c2ccc(C3CCc4ccc([C@H](C5CC5)[C@H](C)C(=O)O)cc4O3)cc2CN2CCC2C(F)(F)F)c(F)cn1` (some centres unmarked) [Example 72] and `COc1cc(-c2ccc(C3CCc4ccc([C@H](C5CC5)[C@H](C)C(=O)O)cc4O3)cc2CN2CCC(C(F)(F)F)C2)c(F)cn1` (some centres unmarked) [Example 14] are within 1.5-fold of each other in EC50: 1.2 nM for the first, 0.87 nM for the second.

Going from `COc1cc(-c2ccc(C3CCc4ccc([C@H](C5CC5)[C@H](C)C(=O)O)cc4O3)cc2CN2CC[C@@H](S(C)(=O)=O)C2)c(F)cn1` (some centres unmarked) [Example 5] to `COc1cc(-c2ccc(C3CCc4ccc([C@H](C5CC5)[C@H](C)C(=O)O)cc4O3)cc2CN2CC[C@H](F)C2)c(F)cn1` (single isomer, unassigned) [Example 25], the EC50 falls from 660 nM to 2.3 nM (290-fold). The second is the more potent here.

Going from `COc1cc(-c2ccc([C@H]3CCc4ccc([C@H](C5CC5)[C@H](C)C(=O)O)cc4O3)cc2[C@H](C)N(C)C)c(F)cn1` [Example 80, (2S,3R)-3-cyclopropyl-3-((R)-2-(3-((S)-1-(dimethylamino)ethyl)-4-(5-fluoro-2-methoxypyridin-4-yl)phenyl)chroman-7-yl)-2-methylpropanoic acid] to `CNCc1cc([C@@H]2CCc3ccc([C@H](C4CC4)[C@H](C)C(=O)O)cc3O2)ccc1-c1cc(OC)ncc1F` [Example 34, Sodium (2S,3R)-3-cyclopropyl-3-((S)-2-(4-(5-fluoro-2-methoxypyridin-4-yl)-3-((methylamino)methyl)phenyl)chroman-7-yl)-2-methylpropanoate], the EC50 falls from 11 nM to 1.9 nM (5.8-fold). The second is the more potent here.

`COc1cc(-c2ccc([C@@H]3CCc4ccc([C@H](C5CC5)[C@H](C)C(=O)O)cc4O3)cc2CN2[C@H](C)CC[C@H]2C)c(F)cn1` [Example 161] and `COc1cc(-c2ccc(C3CCc4ccc([C@H](C5CC5)[C@H](C)C(=O)O)cc4O3)cc2CN2[C@H](C)CC[C@H]2C)c(F)cn1` (some centres unmarked) [Example 70] are within 1.5-fold of each other in EC50: 0.6 nM for the first, 0.5 nM for the second.

Compared with `COc1cc(-c2ccc(C3CCc4ccc([C@H](C5CC5)[C@H](C)C(=O)O)cc4O3)cc2CN2CCN(C)CC2)c(F)cn1` (mixture of isomers) [Example 13, (2S,3R)-3-cyclopropyl-3-(2-(4-(5-fluoro-2-methoxypyridin-4-yl)-3-(4-methylpiperazin-1-yl)methylphenyl)chroman-7-yl)-2-methylpropanoic acid], `COc1cc(-c2ccc(C3CCc4ccc([C@H](C5CC5)[C@H](C)C(=O)O)cc4O3)cc2CN2CCCC2)c(F)cn1` (mixture of isomers) [Example 9] is 49-fold lower in EC50: 210 nM for the first, 4.3 nM for the second. The second is the more potent here.

Going from `CCOc1cc(-c2ccc(C3CCc4ccc([C@H](C5CC5)[C@H](C)C(=O)O)cc4O3)cc2CN2CCCC2)c(Cl)cn1` (mixture of isomers) [Example 216] to `CCOc1cc(-c2ccc(C3CCc4ccc([C@H](C5CC5)[C@H](C)C(=O)O)cc4O3)cc2CN2CCCC2)c(F)cn1` (some centres unmarked) [Example 77], the EC50 falls from 86 nM to 29 nM (3-fold). The second is the more potent here.

Going from `COc1cc(-c2ccc(C3CCc4ccc([C@H](C5CC5)[C@H](C)C(=O)O)cc4O3)cc2CN(C)C2CC2)c(F)cn1` (mixture of isomers) [Example 57] to `CNCc1cc(C2CCc3ccc([C@H](C4CC4)[C@H](C)C(=O)O)cc3O2)ccc1-c1cc(OC)ncc1F` (mixture of isomers) [Example 4], the EC50 rises from 0.18 nM to 310 nM (1700-fold).

`COc1cc(-c2ccc([C@H]3CCc4ccc([C@H](C5CC5)[C@H](C)C(=O)O)cc4O3)cc2CN2CCCCC2)c(F)cn1` [Example 165] and `COc1cc(-c2ccc(C3CCc4ccc([C@H](C5CC5)[C@H](C)C(=O)O)cc4O3)cc2CN2CCCC2)c(F)cn1` (single isomer, unassigned) [Example 9b] are within 1.5-fold of each other in EC50: 3.9 nM for the first, 3.4 nM for the second.

Compared with `COc1cc(-c2ccc(C3CCc4ccc([C@H](C5CC5)[C@H](C)C(=O)O)cc4O3)cc2CN2CC[C@H](O)C2)c(F)cn1` (some centres unmarked) [Example 7], `COc1cc(-c2ccc(C3CCc4ccc([C@H](C5CC5)[C@H](C)C(=O)O)cc4O3)cc2CN2CC[C@H](F)C2)c(F)cn1` (single isomer, unassigned) [Example 26] is 47-fold lower in EC50: 118 nM for the first, 2.5 nM for the second. The second is the more potent here.

`COc1cc(-c2ccc([C@@H]3CCc4ccc([C@H](C5CC5)[C@H](C)C(=O)O)cc4O3)cc2CN2CCC[C@H]2C)c(F)cn1` [Example 141] and `COc1cc(-c2ccc(C3CCc4ccc([C@H](C5CC5)[C@H](C)C(=O)O)cc4O3)cc2CN2CCC[C@H]2C)c(F)cn1` (some centres unmarked) [Example 50] are within 1.5-fold of each other in EC50: 1.1 nM for the first, 1.3 nM for the second.

Going from `COc1cc(-c2ccc([C@H]3CCc4ccc([C@H](C5CC5)[C@H](C)C(=O)O)cc4O3)cc2CN2CCCCC2(C)C)c(F)cn1` [Example 166] to `COc1cc(-c2ccc(C3CCc4ccc([C@H](C5CC5)[C@H](C)C(=O)O)cc4O3)cc2CN2CCCC(C)(C)C2)c(F)cn1` (mixture of isomers) [Example 55], the EC50 rises from 0.3 nM to 0.73 nM (2.4-fold). The first is the more potent here.

Going from `COc1cc(-c2ccc([C@H]3CCc4ccc([C@H](C5CC5)[C@H](C)C(=O)O)cc4O3)cc2CNCC(F)(F)F)c(F)cn1` [Example 149] to `COc1cc(-c2ccc(C3CCc4ccc([C@H](C5CC5)[C@H](C)C(=O)O)cc4O3)cc2CN2CC[C@@H](C(F)(F)F)C2)c(F)cn1` (single isomer, unassigned) [Example 28], the EC50 falls from 2.5 nM to 1.4 nM (1.8-fold). The second is the more potent here.

Going from `COc1cc(-c2ccc([C@H]3CCc4ccc([C@H](C5CC5)[C@H](C)C(=O)O)cc4O3)cc2CN2CCCC[C@@H]2C)c(F)cn1` [Example 168] to `COc1cc(-c2ccc([C@@H]3CCc4ccc([C@H](C5CC5)[C@H](C)C(=O)O)cc4O3)cc2CN2CCCC[C@H]2C)c(F)cn1` [Example 153], the EC50 falls from 2.9 nM to 1.1 nM (2.6-fold).

`COC[C@H]1CC[C@H](COC)N1Cc1cc(C2CCc3ccc([C@H](C4CC4)[C@H](C)C(=O)O)cc3O2)ccc1-c1cc(OC)ncc1F` (some centres unmarked) [Example 65] and `COc1cc(-c2ccc(C3CCc4ccc([C@H](C5CC5)[C@H](C)C(=O)O)cc4O3)cc2CN2CCC3OCCC32)c(F)cn1` (some centres unmarked) [Example 39] are within 1.5-fold of each other in EC50: 2 nM for the first, 2.1 nM for the second.

Compared with `COc1c[nH]nc1-c1ccc([C@@H]2CCc3ccc([C@H](C4CC4)[C@H](C)C(=O)O)cc3O2)cc1CN1CCCC1` [Example 79, Sodium (2S,3R)-3-cyclopropyl-3-((S)-2-(4-(4-methoxy-1H-pyrazol-3-yl)-3-(pyrrolidin-1-ylmethyl)phenyl)chroman-7-yl)-2-methylpropanoate], `COc1cc(-c2ccc(C3CCc4ccc([C@H](C5CC5)[C@H](C)C(=O)O)cc4O3)cc2CN2CCCC2)c(F)cn1` (single isomer, unassigned) [Example 9a] is 1200-fold lower in EC50: 4840 nM for the first, 3.9 nM for the second. The second is the more potent here.

Compared with `COc1cc(-c2ccc(C3CCc4ccc([C@H](C5CC5)[C@H](C)C(=O)O)cc4O3)cc2CN2CCC(F)(F)C2)c(F)cn1` (single isomer, unassigned) [Example 32], `COc1cc(-c2ccc(C3CCc4ccc([C@H](C5CC5)[C@H](C)C(=O)O)cc4O3)cc2CN2CC(F)(F)C2)c(F)cn1` (mixture of isomers) [Example 61] is 2.4-fold higher in EC50: 0.84 nM for the first, 2 nM for the second. The first is the more potent here.

First: COc1cc(-c2ccc(C3CCc4ccc([C@H](C5CC5)[C@H](C)C(=O)O)cc4O3)cc2CN2CCC3(CCO3)C2)c(F)cn1 (some centres unmarked) [Example 54]
Second: COc1cc(-c2ccc(C3CCc4ccc([C@H](C5CC5)[C@H](C)C(=O)O)cc4O3)cc2CN2CCC(F)(F)C2)c(F)cn1 (mixture of isomers) [Example 17]
The EC50 of the first is 19-fold higher: 13 nM for the first, 0.7 nM for the second. The second is the more potent here.

Going from `COc1cc(-c2ccc([C@H]3CCc4ccc([C@H](C5CC5)[C@H](C)C(=O)O)cc4O3)cc2[C@H](C)N(C)C)c(F)cn1` [Example 82, (2S,3R)-3-cyclopropyl-3-((R)-2-(3-((S)-1-(dimethylamino)ethyl)-4-(5-fluoro-2-methoxypyridin-4-yl)phenyl)chroman-7-yl)-2-methylpropanoic acid] to `CCN(CC)Cc1cc([C@H]2CCc3ccc([C@H](C4CC4)[C@H](C)C(=O)O)cc3O2)ccc1-c1cc(OC)ncc1F` [Example 145], the EC50 falls from 13 nM to 2.7 nM (4.8-fold). The second is the more potent here.

Compared with `COc1cc(-c2ccc(C3CCc4ccc([C@H](C5CC5)[C@H](C)C(=O)O)cc4O3)c(CN3CCCC3)c2)ccn1` (mixture of isomers) [Example 112], `CCc1ccc(F)c(-c2ccc(C3CCc4ccc([C@H](C5CC5)[C@H](C)C(=O)O)cc4O3)cc2CN2CCCC2)c1` (mixture of isomers) [Example 75] is 3-fold higher in EC50: 5.6 nM for the first, 17 nM for the second. The first is the more potent here.
